The nature of series [1]: 4-wk GLP toxicology studies / exposure comparison. The class given is in vivo. The conditions noted are these: based on 4-wk GLP toxicology studies, predicted.
In series [2] the test system is crizotinib resistant NCI-H2228 tumors. Nature of the series: Anti-tumor activity in crizotinib resistant NCI-H2228 xenograft tumors. Format: in vivo, mouse. The procedure:
The mouse xenograft tumors derived from NCI-H2228 were treated with crizotinib continuously at 50 mg/kg for 9 days, then 75 mg/kg for 9 days and then 100 mg/kg for 33 days. Alternatively, after xenograft tumors derived from NCI-H2228 were treated with crizotinib for 14 days at 100 mg/kg, the treatment with crizotinib was stopped for a few days until tumors re-grew. Once tumors re-grew, animals were treated with crizotinib at 100 mg/kg until tumors became resistant to crizotinib treatment. Tumors from individual animal were harvested when they became resistant to crizotinib. A few such resistant tumors were randomly selected for further studies as described below. Each resistant tumor were cut into small pieces at harvest and implanted into 5 animals; when tumor size was big enough in the 5 animals, the tumors were harvested and then implanted into 25 animals for compound testing. A piece of harvested tumors was also used for RNA extraction and subsequently sequencing of EML4-ALK transcript.

For the next series, the system named is NCI-H2228 tumors. The series is described as follows: Subcutaneous xenograft tumor model derived from NCI-H2228 cells. The class given is in vivo, mouse. The source says: The day of implantation, NCI-H2228 cells were harvested with 0.05% Trypsin/EDTA and resuspended in a mixture of RPMI 1640 serum-free medium and matrigel (BD Biosciences #354234, La Jolla, Calif.) at a ratio of 1:1. Five million cells were subcutaneously implanted into the right hind flank of SCID beige mouse. When the tumor size reached a volume of 300-400 mm3, the tumors were harvested and were cut into smaller pieces of 1-2 mm3 in culture medium for passage implanting subcutaneously. After the tumors were consecutively passaged three times in SCID beige mice, the tumors were considered as stock tumors for study implantation. The tumor pieces were kept in a mixture of RPMI1640 serum-free medium and matrigel at a ratio of 1:1 on wet ice for implanting in SCID beige mice. Implantation in […] mice: 2-3 pieces of the tumor with matrigel mixture were subcutaneously implanted into the right flank of the mice. After implantation, the tumors were callipered 3 times per week once tumors became palpable.
SCID beige mice bearing the H2228 tumors were randomized into 5 groups (n=4 mice per group) with an average tumor volume of 85±35 mm3. The test compound was administered by oral gavage. Its exposure in the tumor bearing female SCID beige mice was evaluated on day 14. Tumor growth was calculated by % T/C as follows: % T/C=(ΔT/ΔC)×100, where ΔT>0; or % T/C=(ΔT/ΔTI)×100, where ΔT<0. Changes in tumor volume (Δ volumes) for each treated (T) and control (C) group were calculated for each day tumors were measured by subtracting the median tumor volume on the day of first treatment (staging day) from the median tumor volume on the specified observation day.

A further series relates to NCI-H2228 cells. Nature of the series: In vitro cell growth and proliferation (luciferase readout). Format: cell-based. Conditions: Homo sapiens, 72 h; NCI-H2228 with EML4-ALK, luciferase-expressing, 3 days incubation. How it is done:
NCI-H2228 cells were obtained from the American Type Culture Collection (ATCC) (Manassa, USA) and modified by viral infection to stably express luciferase. For cell growth and proliferation assays, 2250 cells in 50 μL of RPMI media (Gibco, Carlsbad, Calif.) containing 10% fetal bovine serum (FBS) (Gibco, Carlsbad, Calif.) were plated into solid bottom, white 384-well plates (Corning, Acton, Mass.) using μ-Fill instrumentation (Bio-Tek). Plates were incubated 1 hour in a 37° C. tissue culture incubator prior to the addition of compound using MiniTrak instrumentation (Perkin-Elmer). 50 nL of a 1:3 dilution plate of compounds was added to the assay plates, resulting in final concentrations of 10000, 3333, 1111, 370, 123, 41, 14, 4.6, 1.5, 0.5 and 0.17 nM. After compound addition, plates were incubated for 3 days at 37° C. in a tissue culture incubator. At day 3, plates were assayed for cell growth and proliferation by means of measuring luciferase activity in each individual well. In detail, 25 μL of BRIGHT-GLO® (Promega, Madison, Wis.) or BRITELITE™ (PerkinElmer, Waltham, Mass.) was added to each well. After 10 minutes of incubation at room temperature, plates were read using either an Analyst-GT or an Envision plate reader (Molecular Devices, Sunnyvale, Calif.). […]

Broadly, the IC50 is the concentration that inhibits the measured activity by half. High values mean weaker potency in that assay, low ones greater potency in that assay.

For `Cc1cc(Nc2ncc(Cl)c(Nc3ccccc3S(=O)(=O)C(C)C)n2)c(OC(C)C)cc1C1CCNCC1` [Compound 1, 5-chloro-N2-(2-isopropoxy-5-methyl-4-(piperidin-4-yl)phenyl)-N4-[2-(propane-2-sulfonyl)-phenyl]-pyrimidine-2,4-diamine], the “exposure associated with 50 mg/kg in mouse relative to exposure at the MTD in humans” value in series [1] was “below the exposure at the MTD in humans”. In series [2] (FIG. 2), the “anti-tumor growth activity in crizotinib resistant NCI-H2228” value is given as “significant anti-tumor growth activity”. In addition, in series [2] (other crizotinib resistant NCI-H2228 tumors, FIG. 3), the “activity compared with crizotinib at 100 mg/kg” value was “better activity than crizotinib”. Further, in the series on NCI-H2228 tumors (dosed orally at 25 mg/kg once a day for 2 weeks), the “animal body weight loss” value is “not observed”. Moreover, in the series on NCI-H2228 tumors (dosed orally at 25 mg/kg once a day for 2 weeks, FIG. 1), the “anti-tumor activity (tumor regression)” value is “complete tumor regression”. Moreover, the tolerability result in the series with NCI-H2228 tumors (mouse, in vivo, po, 25 mg/kg) is listed as “well tolerated”. Further, in the series on NCI-H2228 cells, the IC50 was 11 nM.

Compound `CC(C)Oc1cc2c(cc1Nc1ncc(Cl)c(Nc3ccccc3S(=O)(=O)C(C)C)n1)C(=O)N(C1CCN(C)CC1)C2` [Compound 6, 6-{5-Chloro-4-[2-(propane-2-sulfonyl)-phenylamino]-pyrimidin-2-ylamino}-5-isopropoxy-2-(1-methyl-piperidin-4-yl)-2,3-dihydro-isoindol-1-one] came in with an IC50 with NCI-H2228 cells of 16 nM.

Source of the values: patent US8703787B2, “Methods of using ALK inhibitors” (IRM LLC, priority 2011, dated 2014).
